# Measured values: PubChem BioAssay (NCI)
#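 48-hour exposure; five concentrations; linearly interpolated endpoints. Definition used: TGI = concentration required for complete inhibition of growth.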
# How the values were obtained:
# Experiment in all cases: NCI tumour cell line growth inhibition, 48 h
# SN12C renal = system: SN12C renal
# UACC-62 melanoma = system: UACC-62 melanoma
# ACHN renal = system: ACHN renal
# HCT-116 colon = system: HCT-116 colon
# IGROV1 ovarian = system: IGROV1 ovarian
# LXFL 529 NSCLC = system: LXFL 529 NSCLC
# RPMI-8226 leukemia = system: RPMI-8226 leukemia
# EKVX NSCLC = system: EKVX NSCLC
# UACC-257 melanoma = system: UACC-257 melanoma
# SF-295 CNS = system: SF-295 CNS
# A549 NSCLC = system: A549 NSCLC
# HT29 colon = system: HT29 colon
# M14 melanoma = system: M14 melanoma
# KM20L2 colon = system: KM20L2 colon
# NCI-H23 lung = system: NCI-H23 lung
# SF-268 CNS = system: SF-268 CNS
# UO-31 renal = system: UO-31 renal
# SK-OV-3 ovarian = system: SK-OV-3 ovarian
# DMS 273 small cell lung = system: DMS 273 small cell lung
# SNB-19 CNS = system: SNB-19 CNS
# SF-539 CNS = system: SF-539 CNS
# RXF-631 renal = system: RXF-631 renal
# LOX IMVI melanoma = system: LOX IMVI melanoma
# SK-MEL-5 melanoma = system: SK-MEL-5 melanoma
# NCI-H522 lung = system: NCI-H522 lung
# CCRF-CEM leukemia = system: CCRF-CEM leukemia
# SR leukemia = system: SR leukemia
# HOP-62 NSCLC = system: HOP-62 NSCLC
# K-562 leukemia = system: K-562 leukemia
# CAKI-1 renal = system: CAKI-1 renal
# DMS 114 small cell lung = system: DMS 114 small cell lung
# DLD-1 colon = system: DLD-1 colon
# RXF 393 renal = system: RXF 393 renal
# HL-60(TB) leukemia = system: HL-60(TB) leukemia
# HOP-92 NSCLC = system: HOP-92 NSCLC
# MALME-3M melanoma = system: MALME-3M melanoma
# SNB-78 CNS = system: SNB-78 CNS
# SK-MEL-28 melanoma = system: SK-MEL-28 melanoma
# OVCAR-5 ovarian = system: OVCAR-5 ovarian
# TK-10 renal = system: TK-10 renal
# SNB-75 CNS = system: SNB-75 CNS
# COLO 205 colon = system: COLO 205 colon
# SW-620 colon = system: SW-620 colon
# NCI-H226 lung = system: NCI-H226 lung
# KM12 colon = system: KM12 colon
# MOLT-4 leukemia = system: MOLT-4 leukemia
# NCI-H460 lung = system: NCI-H460 lung
# 786-0 renal = system: 786-0 renal
# HOP-18 NSCLC = system: HOP-18 NSCLC
# M19-MEL melanoma = system: M19-MEL melanoma
# HCC-2998 colon = system: HCC-2998 colon
# U251 CNS = system: U251 CNS
# OVCAR-8 ovarian = system: OVCAR-8 ovarian
# HCT-15 colon = system: HCT-15 colon
# OVCAR-4 ovarian = system: OVCAR-4 ovarian
# OVCAR-3 ovarian = system: OVCAR-3 ovarian
# MDA-MB-231 breast = system: MDA-MB-231 breast
# SN12K1 renal = system: SN12K1 renal
# PC-3 prostate = system: PC-3 prostate
# XF 498 CNS = system: XF 498 CNS
# A498 renal = system: A498 renal
# BT-549 breast = system: BT-549 breast
# SK-MEL-2 melanoma = system: SK-MEL-2 melanoma
# DU-145 prostate = system: DU-145 prostate
# T-47D breast = system: T-47D breast
# HS 578T breast = system: HS 578T breast
# MCF7 breast = system: MCF7 breast
# NCI/ADR-RES ovarian = system: NCI/ADR-RES ovarian
# MDA-MB-435 = system: MDA-MB-435
structure (smiles),measurement,setting,value
COc1cc(Br)c(C=Nc2cccc3cc(OC)c(OC)cc23)cc1OC,TGI,SN12C renal,> 100 µM
same,TGI,UACC-62 melanoma,> 100 µM
same,TGI,ACHN renal,> 100 µM
same,TGI,HCT-116 colon,> 100 µM
same,TGI,IGROV1 ovarian,> 100 µM
same,TGI,LXFL 529 NSCLC,> 100 µM
same,TGI,RPMI-8226 leukemia,> 100 µM
same,TGI,EKVX NSCLC,> 100 µM
same,TGI,UACC-257 melanoma,> 100 µM
same,TGI,SF-295 CNS,73.4 µM
same,TGI,A549 NSCLC,> 100 µM
same,TGI,HT29 colon,98.4 µM
same,TGI,M14 melanoma,> 100 µM
same,TGI,KM20L2 colon,> 100 µM
same,TGI,NCI-H23 lung,> 100 µM
same,TGI,SF-268 CNS,> 100 µM
same,TGI,UO-31 renal,> 100 µM
same,TGI,SK-OV-3 ovarian,> 100 µM
same,TGI,DMS 273 small cell lung,> 100 µM
same,TGI,SNB-19 CNS,> 100 µM
same,TGI,SF-539 CNS,66.9 µM
same,TGI,RXF-631 renal,> 100 µM
same,TGI,LOX IMVI melanoma,> 100 µM
same,TGI,SK-MEL-5 melanoma,> 100 µM
same,TGI,NCI-H522 lung,> 100 µM
same,TGI,CCRF-CEM leukemia,> 100 µM
same,TGI,SR leukemia,> 100 µM
same,TGI,HOP-62 NSCLC,> 100 µM
same,TGI,K-562 leukemia,> 100 µM
same,TGI,CAKI-1 renal,> 100 µM
same,TGI,DMS 114 small cell lung,50.4 µM
same,TGI,DLD-1 colon,> 100 µM
same,TGI,RXF 393 renal,50.3 µM
same,TGI,HL-60(TB) leukemia,39.5 µM
same,TGI,HOP-92 NSCLC,98.1 µM
same,TGI,MALME-3M melanoma,> 100 µM
same,TGI,SNB-78 CNS,> 100 µM
same,TGI,SK-MEL-28 melanoma,> 100 µM
same,TGI,OVCAR-5 ovarian,> 100 µM
same,TGI,TK-10 renal,> 100 µM
same,TGI,SNB-75 CNS,59 µM
same,TGI,COLO 205 colon,> 100 µM
same,TGI,SW-620 colon,> 100 µM
same,TGI,NCI-H226 lung,82 µM
same,TGI,KM12 colon,> 100 µM
same,TGI,MOLT-4 leukemia,> 100 µM
same,TGI,NCI-H460 lung,> 100 µM
same,TGI,786-0 renal,> 100 µM
same,TGI,HOP-18 NSCLC,> 100 µM
same,TGI,M19-MEL melanoma,> 100 µM
same,TGI,HCC-2998 colon,> 100 µM
same,TGI,U251 CNS,> 100 µM
same,TGI,OVCAR-8 ovarian,> 100 µM
same,TGI,HCT-15 colon,> 100 µM
same,TGI,OVCAR-4 ovarian,> 100 µM
same,TGI,OVCAR-3 ovarian,80.8 µM
C/C(=N\NC(=S)N1CC2CCC(CC2)C1)c1nccs1,TGI,SN12C renal,12.5 µM
same,TGI,MDA-MB-231 breast,19.9 µM
same,TGI,UACC-62 melanoma,0.893 µM
same,TGI,ACHN renal,8.99 µM
same,TGI,HCT-116 colon,13.4 µM
same,TGI,IGROV1 ovarian,15 µM
same,TGI,SN12K1 renal,15.2 µM
same,TGI,LXFL 529 NSCLC,15.8 µM
same,TGI,RPMI-8226 leukemia,20.8 µM
same,TGI,PC-3 prostate,16.6 µM
same,TGI,EKVX NSCLC,11.9 µM
same,TGI,UACC-257 melanoma,6.06 µM
same,TGI,SF-295 CNS,7.81 µM
same,TGI,A549 NSCLC,8.87 µM
same,TGI,HT29 colon,15.9 µM
same,TGI,M14 melanoma,1.6 µM
same,TGI,KM20L2 colon,1.35 µM
same,TGI,NCI-H23 lung,13 µM
same,TGI,SF-268 CNS,9.41 µM
same,TGI,UO-31 renal,1.52 µM
same,TGI,SK-OV-3 ovarian,11.3 µM
same,TGI,DMS 273 small cell lung,4.93 µM
same,TGI,SNB-19 CNS,15.1 µM
same,TGI,SF-539 CNS,3.57 µM
same,TGI,XF 498 CNS,13.8 µM
same,TGI,RXF-631 renal,17.6 µM
same,TGI,LOX IMVI melanoma,9.09 µM
same,TGI,SK-MEL-5 melanoma,5.24 µM
same,TGI,NCI-H522 lung,14 µM
same,TGI,CCRF-CEM leukemia,0.445 µM
same,TGI,SR leukemia,6.91 µM
same,TGI,HOP-62 NSCLC,5.66 µM
same,TGI,K-562 leukemia,9.9 µM
same,TGI,CAKI-1 renal,14.7 µM
same,TGI,DMS 114 small cell lung,0.218 µM
same,TGI,DLD-1 colon,17.3 µM
same,TGI,A498 renal,14.3 µM
same,TGI,RXF 393 renal,5.39 µM
same,TGI,BT-549 breast,20 µM
same,TGI,HL-60(TB) leukemia,0.0184 µM
same,TGI,HOP-92 NSCLC,7.21 µM
same,TGI,MALME-3M melanoma,13.9 µM
same,TGI,SNB-78 CNS,41.8 µM
same,TGI,SK-MEL-28 melanoma,19.3 µM
same,TGI,OVCAR-5 ovarian,15.8 µM
same,TGI,TK-10 renal,15.9 µM
same,TGI,SNB-75 CNS,16.2 µM
same,TGI,SK-MEL-2 melanoma,15.7 µM
same,TGI,COLO 205 colon,16 µM
same,TGI,DU-145 prostate,12.5 µM
same,TGI,SW-620 colon,18.9 µM
same,TGI,T-47D breast,14.6 µM
same,TGI,HS 578T breast,38.6 µM
same,TGI,NCI-H226 lung,4.7 µM
same,TGI,KM12 colon,17.6 µM
same,TGI,MOLT-4 leukemia,20.7 µM
same,TGI,NCI-H460 lung,3.67 µM
same,TGI,786-0 renal,7.55 µM
same,TGI,MCF7 breast,14 µM
same,TGI,HOP-18 NSCLC,7.95 µM
same,TGI,M19-MEL melanoma,1.8 µM
same,TGI,HCC-2998 colon,15.9 µM
same,TGI,U251 CNS,6.43 µM
same,TGI,OVCAR-8 ovarian,13.1 µM
same,TGI,HCT-15 colon,20.4 µM
same,TGI,NCI/ADR-RES ovarian,3.9 µM
same,TGI,OVCAR-4 ovarian,17.6 µM
same,TGI,OVCAR-3 ovarian,19.8 µM
same,TGI,MDA-MB-435,12.7 µM
C=CCNC(=O)N(CCCCC(NC(C)=O)C(=O)NCc1ccccc1)Cc1ccccc1 (stereo not drawn),TGI,SN12C renal,> 100 µM
same,TGI,UACC-62 melanoma,> 100 µM
same,TGI,ACHN renal,> 100 µM
same,TGI,IGROV1 ovarian,> 100 µM
same,TGI,LXFL 529 NSCLC,> 100 µM
same,TGI,RPMI-8226 leukemia,> 100 µM
same,TGI,EKVX NSCLC,> 100 µM
same,TGI,UACC-257 melanoma,> 100 µM
same,TGI,SF-295 CNS,> 100 µM
same,TGI,A549 NSCLC,> 100 µM
same,TGI,HT29 colon,> 100 µM
same,TGI,M14 melanoma,> 100 µM
same,TGI,KM20L2 colon,> 100 µM
same,TGI,NCI-H23 lung,> 100 µM
same,TGI,SF-268 CNS,> 100 µM
same,TGI,UO-31 renal,> 100 µM
same,TGI,SK-OV-3 ovarian,> 100 µM
same,TGI,DMS 273 small cell lung,> 100 µM
same,TGI,SNB-19 CNS,> 100 µM
same,TGI,SF-539 CNS,> 100 µM
same,TGI,XF 498 CNS,> 100 µM
same,TGI,RXF-631 renal,> 100 µM
same,TGI,LOX IMVI melanoma,> 100 µM
same,TGI,SK-MEL-5 melanoma,> 100 µM
same,TGI,NCI-H522 lung,> 100 µM
same,TGI,CCRF-CEM leukemia,> 100 µM
same,TGI,HOP-62 NSCLC,> 100 µM
same,TGI,K-562 leukemia,> 100 µM
same,TGI,CAKI-1 renal,> 100 µM
same,TGI,A498 renal,> 100 µM
same,TGI,RXF 393 renal,> 100 µM
same,TGI,HL-60(TB) leukemia,> 100 µM
same,TGI,HOP-92 NSCLC,> 100 µM
same,TGI,MALME-3M melanoma,> 100 µM
same,TGI,SK-MEL-28 melanoma,> 100 µM
same,TGI,OVCAR-5 ovarian,> 100 µM
same,TGI,TK-10 renal,> 100 µM
same,TGI,SNB-75 CNS,> 100 µM
same,TGI,SK-MEL-2 melanoma,> 100 µM
same,TGI,COLO 205 colon,> 100 µM
same,TGI,SW-620 colon,> 100 µM
same,TGI,NCI-H226 lung,> 100 µM
same,TGI,KM12 colon,> 100 µM
same,TGI,MOLT-4 leukemia,> 100 µM
same,TGI,NCI-H460 lung,> 100 µM
same,TGI,786-0 renal,> 100 µM
same,TGI,HOP-18 NSCLC,> 100 µM
same,TGI,M19-MEL melanoma,> 100 µM
same,TGI,U251 CNS,> 100 µM
same,TGI,OVCAR-8 ovarian,> 100 µM
same,TGI,HCT-15 colon,> 100 µM
same,TGI,OVCAR-4 ovarian,> 100 µM
same,TGI,OVCAR-3 ovarian,> 100 µM
